Reference: PubChem BioAssay AID330 (DTP/NCI, 2004)
“And” between values parts separate entries of the source, which are not always exact repeats. Identical values can stand only once. Toxic doses and inconclusive results are not listed. Rule for the calls: active = survival T/C of 150% or more; inactive = T/C below 125% in these data.

Tested on: P388 leukemia ip, CD2F1 mice, survival T/C
Assay: NCI In Vivo Anticancer Drug Screen. Data for tumor model P388 Leukemia (intraperitoneal) in CD2F1 (CDF1) mice
Settings: endpoint: median survival time, higher = longer survival
How it was run: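 Mice carrying the transplanted tumor received test compound or vehicle. Survival was recorded in each group, and the value is the treated-group measurement divided by that of the vehicle-treated control group.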

[1] = dose: 50.0 mg/kg/injection, schedule: Q01DX005 (ip), vehicle: Klucel (hydroxypropylcellulose) (HPC)
[2] = dose: 100.0 mg/kg/injection, schedule: Q01DX005 (ip), vehicle: Klucel (hydroxypropylcellulose) (HPC)
[3] = dose: 50.0 mg/kg/injection, schedule: Q01DX005 (ip), vehicle: saline with Tween-80
[4] = dose: 100.0 mg/kg/injection, schedule: Q01DX005 (ip), vehicle: saline with Tween-80
[5] = dose: 200.0 mg/kg/injection, schedule: Q01DX005 (ip), vehicle: saline with Tween-80

Measured: T/C

COC(=O)c1ccc(O)cc1C1(Cl)CC1
inactive: dose: 60.0 mg/kg/injection, schedule: Q01DX005 (ip), vehicle: Klucel (hydroxypropylcellulose) (HPC) 108 % of control | dose: 120.0 mg/kg/injection, schedule: Q01DX005 (ip), vehicle: Klucel (hydroxypropylcellulose) (HPC) 102 % of control | dose: 240.0 mg/kg/injection, schedule: Q01DX005 (ip), vehicle: Klucel (hydroxypropylcellulose) (HPC) 100 % of control

CCOc1nc2ccc(NC(C)CN3CCN(CCc4ccccc4)CC3)cc2s1 (centres undefined)
inactive: [1] 109 % of control | [2] 118 % of control

Cc1nn(C(=S)S)c(C)c1N=Nc1ccc(F)cc1
inactive: [3] 103 % of control | [4] 110 % of control | [5] 101 % of control

Cc1ccccc1C(=O)c1cc(Br)ccc1[N+](=O)[O-]
inactive: dose: 50.0 mg/kg/injection, schedule: Q01DX009 (ip), vehicle: saline 91 % of control | dose: 100.0 mg/kg/injection, schedule: Q01DX009 (ip), vehicle: saline 100 % of control | dose: 200.0 mg/kg/injection, schedule: Q01DX009 (ip), vehicle: saline 100 % of control

CCN(CC)C(=S)SS(C)(=O)=O
inactive: dose: 25.0 mg/kg/injection, schedule: Q04DX003 (ip), vehicle: Klucel (hydroxypropylcellulose) (HPC) 99 % of control | dose: 50.0 mg/kg/injection, schedule: Q04DX003 (ip), vehicle: Klucel (hydroxypropylcellulose) (HPC) 107 % of control | dose: 100.0 mg/kg/injection, schedule: Q04DX003 (ip), vehicle: Klucel (hydroxypropylcellulose) (HPC) 107 % of control

CC1(C)OC(=O)C2(O1)C(=O)C1CCCCC12C (centres undefined)
inactive: dose: 60.0 mg/kg/injection, schedule: Q01DX005 (ip), vehicle: saline with Tween-80 100 % of control | dose: 120.0 mg/kg/injection, schedule: Q01DX005 (ip), vehicle: saline with Tween-80 95 % of control | dose: 240.0 mg/kg/injection, schedule: Q01DX005 (ip), vehicle: saline with Tween-80 95 % of control

CNC(=O)OCc1cnc2ccc(OC)cc2c1COC(=O)NC
inactive: [1] 92 % of control | [2] 99 % of control | dose: 200.0 mg/kg/injection, schedule: Q01DX005 (ip), vehicle: Klucel (hydroxypropylcellulose) (HPC) 102 % of control

O=C(Cn1ccnc1)Nc1ccc(Cl)cc1C(=O)c1ccccc1
inactive: [3] 95 % of control | [4] 92 % of control

Nc1nc(F)nc2c1ncn2CC(O)CO (centres undefined)
inactive: dose: 50.0 mg/kg/injection, schedule: Q01DX005 (ip), vehicle: distilled water + alcohol 100 % of control | dose: 100.0 mg/kg/injection, schedule: Q01DX005 (ip), vehicle: distilled water + alcohol 101 % of control | dose: 200.0 mg/kg/injection, schedule: Q01DX005 (ip), vehicle: distilled water + alcohol 95 % of control

CC(CO)NC(=O)C1C=C2c3cccc4[nH]cc(c34)CC2N(C)C1 (centres undefined)
inactive: dose: 9.0 mg/kg/injection, schedule: Q01DX009 (ip), vehicle: saline 97 % of control | dose: 18.0 mg/kg/injection, schedule: Q01DX009 (ip), vehicle: saline 91 % of control | dose: 44.5 mg/kg/injection, schedule: Q01DX009 (ip), vehicle: saline 97 % of control | dose: 89.0 mg/kg/injection, schedule: Q01DX009 (ip), vehicle: saline 97 % of control | dose: 178.0 mg/kg/injection, schedule: Q01DX009 (ip), vehicle: saline 106 % of control

CC(=O)NCCN=Cc1ccccc1
inactive: dose: 100.0 mg/kg/injection, schedule: Q04DX003 (ip), vehicle: saline with Tween-80 100 % of control | dose: 200.0 mg/kg/injection, schedule: Q04DX003 (ip), vehicle: saline with Tween-80 100 % of control | dose: 400.0 mg/kg/injection, schedule: Q04DX003 (ip), vehicle: saline with Tween-80 100 % of control

N#C/C(C(=N)c1ccccc1)=C1\SS/C(=C(\C#N)C(=N)c2ccccc2)S1
inactive: dose: 1.56 mg/kg/injection, schedule: Q01DX009 (ip), vehicle: saline with Tween-80 99 % of control and 90 % of control | dose: 3.13 mg/kg/injection, schedule: Q01DX009 (ip), vehicle: saline with Tween-80 99 % of control and 103 % of control | dose: 6.25 mg/kg/injection, schedule: Q01DX009 (ip), vehicle: saline with Tween-80 104 % of control and 86 % of control and 90 % of control | dose: 12.5 mg/kg/injection, schedule: Q01DX009 (ip), vehicle: saline with Tween-80 86 % of control and 97 % of control | dose: 25.0 mg/kg/injection, schedule: Q01DX009 (ip), vehicle: saline with Tween-80 86 % of control | dose: 50.0 mg/kg/injection, schedule: Q01DX009 (ip), vehicle: saline with Tween-80 105 % of control | dose: 100.0 mg/kg/injection, schedule: Q01DX009 (ip), vehicle: saline with Tween-80 107 % of control | dose: 200.0 mg/kg/injection, schedule: Q01DX009 (ip), vehicle: saline with Tween-80 105 % of control

Cc1ccc(C(=O)NCCN2CCN3Cc4[nH]c5ccccc5c4CC3C2)cc1 (centres undefined)
inactive: dose: 100.0 mg/kg/injection, schedule: Q04DX002 (ip), vehicle: saline with Tween-80 92 % of control | dose: 200.0 mg/kg/injection, schedule: Q04DX002 (ip), vehicle: saline with Tween-80 105 % of control

CC(=O)Nn1c(N)nc2ccccc21
inactive: dose: 100.0 mg/kg/injection, schedule: Q04DX003 (ip), vehicle: saline 100 % of control | dose: 200.0 mg/kg/injection, schedule: Q04DX003 (ip), vehicle: saline 109 % of control | dose: 400.0 mg/kg/injection, schedule: Q04DX003 (ip), vehicle: saline 96 % of control

Cn1c(=O)c2[nH]c(Cc3cccc(O)c3)nc2n(C)c1=O
inactive: dose: 25.0 mg/kg/injection, schedule: Q01DX009 (ip), vehicle: suspension in saline 99 % of control | dose: 50.0 mg/kg/injection, schedule: Q01DX009 (ip), vehicle: suspension in saline 96 % of control | dose: 100.0 mg/kg/injection, schedule: Q01DX009 (ip), vehicle: suspension in saline 92 % of control and 93 % of control | dose: 200.0 mg/kg/injection, schedule: Q01DX009 (ip), vehicle: suspension in saline 104 % of control | dose: 400.0 mg/kg/injection, schedule: Q01DX009 (ip), vehicle: suspension in saline 91 % of control

CCCCCCCCCCCCCCCCOc1cccc(/C(=N/NS(C)(=O)=O)N2CCCCC2)c1
inactive: dose: 50.0 mg/kg/injection, schedule: Q01DX009 (ip), vehicle: Klucel (hydroxypropylcellulose) (HPC) 89 % of control | dose: 100.0 mg/kg/injection, schedule: Q01DX009 (ip), vehicle: Klucel (hydroxypropylcellulose) (HPC) 92 % of control | dose: 200.0 mg/kg/injection, schedule: Q01DX009 (ip), vehicle: Klucel (hydroxypropylcellulose) (HPC) 91 % of control

Cc1ccccc1Nc1c2ccccc2nc2ccccc12
inactive: dose: 12.5 mg/kg/injection, schedule: Q04DX003 (ip), vehicle: saline with Tween-80 95 % of control | dose: 25.0 mg/kg/injection, schedule: Q04DX003 (ip), vehicle: saline with Tween-80 95 % of control | dose: 50.0 mg/kg/injection, schedule: Q04DX003 (ip), vehicle: saline with Tween-80 104 % of control

OCN1CCC23c4c5ccc(O)c4OC2C(O)C=CC3C1C5 (centres undefined)
inactive: [3] 100 % of control | [4] 100 % of control | [5] 100 % of control

O=[N+]([O-])C1C2C=CC(C2)C1C(Cl)(Cl)Cl (centres undefined)
inactive: dose: 0.19 mg/kg/injection, schedule: Q01DX009 (ip), vehicle: saline with Tween-80 101 % of control | dose: 0.39 mg/kg/injection, schedule: Q01DX009 (ip), vehicle: saline with Tween-80 100 % of control | dose: 0.78 mg/kg/injection, schedule: Q01DX009 (ip), vehicle: saline with Tween-80 98 % of control and 99 % of control

COC(=O)C1=CO[C@@H](OC2OC(CO)C(O)C(O)C2O)[C@@H]2[C@H](C)[C@@H](O)[C@@H](O)[C@]12O (some centres undefined)
inactive: dose: 25.0 mg/kg/injection, schedule: Q01DX005 (ip), vehicle: saline 115 % of control | dose: 50.0 mg/kg/injection, schedule: Q01DX005 (ip), vehicle: saline 100 % of control | dose: 100.0 mg/kg/injection, schedule: Q01DX005 (ip), vehicle: saline 106 % of control | dose: 200.0 mg/kg/injection, schedule: Q01DX005 (ip), vehicle: saline 106 % of control

NC(Cc1ccccc1)C(=O)CCl (centres undefined)
inactive: dose: 12.5 mg/kg/injection, schedule: Q01DX001 (ip), vehicle: saline 104 % of control | dose: 25.0 mg/kg/injection, schedule: Q01DX001 (ip), vehicle: saline 100 % of control
